From patent US9006454B2, “Dihydroorotate dehydrogenase inhibitors” (Merck Serono S.A., priority 2009, dated 2015)
pEC50, pIC50: −log10 of the molar value.

Assays:
DHODH = DHODH (Homo sapiens (Human), UniProt Q02127); assay: DHODH activity assay (coupled enzyme assay, DCIP reduction, absorbance at 610 nm); format: biochemical; settings: for inhibition at 10 µM / inh @ 10 uM hDHODH (%): compound at 10 uM; for inhibition at 10 µM: read-out: inh @ 10 uM hDHODH (%)
Description: The DHODH activity assay is a coupled enzyme assay in which oxidation of DHO and subsequent reduction of ubiquinone are stoichiometrically equivalent to the reduction of DCIP ([…]). The reduction of DCIP is accompanied by a loss of absorbance at 610 nm.
Buffer Preparation: 50 mM tris HCl, 150 mM KCl, and pH 8.0, 0.8% triton.
5 μL of Dimethyl sulfoxide or a compound of formula I in DMSO solution was added to the wells of a 96 well plate. Compounds of formula I were measured at 10 μM.
Protein along with buffer was added, so that the total volume including the DMSO was 87 μL. Compound and protein were incubated for half an hour at room temperature after mixing. 5 μL of 20 mM solution of L-Dihydroorotic acid, 5 μL of 2 mM solution of Decylubiquinone and 3 μL of 2 mM solution of 2,6-Dichloroindophenol sodium salt hydrate were added to the above solution (total assay volume 100 μL). The mixture was stirred for 2 min and absorbance was recorded at every 10 min at 610 nanometers.
Percent Inhibition is Calculated as Follows
Positive control contains DMSO, buffer, enzyme and substrates
No Enzyme reaction contains DMSO, buffer and substrates
IC50 determination: • A 2 mM DMSO stock of the compound of formula I to be examined was prepared. ⅓rd dilutions were made as follows:
5 μL of each stock of compound of formula I (solution indicated in column 4 of table) was used for each 100 μL assay. Therefore, 5 μL of the 2 mM stock provided 100 μL of 100 μM solution of compound of formula I, when made up with buffer, protein and substrate. See also: Ulrich et al. (2001) Eur. J. Biochem. 268, 1861-1868.

Jurkat cells = assay: Measurement of cell proliferation (Jurkat cell), XTT assay; format: cell-based; settings: for inhibition at 1 µM: read-out: % inh Jurkat_cells @ 1 uM (%)
Description: See also Roehm, N et al [1991] An improved colorimetric assay for cell proliferation and viability utilizing the tetrazolium salt XTT. J. Immunol. Methods 142:257-265.
Culture Jurkat cells in T-25 flasks at a density of 0.2×10^6/ml 2-3 days before the day of experiment set up.
Centrifuge Jurkat T-cell suspension at 1200 rpm for 10 minutes and resuspend cells again in fresh RPMI medium with 10% FBS.
Count the cells and dilute suspension to a density of 2×10^6 cells/ml. Seed 50 μL of this suspension in each well of a 96 well plate (100,000 cells per well). Keep the edges of the plate empty to avoid evaporation.
Serially dilute DMSO stocks of compounds to get different concentrations for an EC50 curve. 50 μL of compound diluted in media (2× concentration required in well) is added to each well. DMSO concentration should be kept constant at 0.25-0.5% for all wells.
Typically, for all compounds with IC50<1 μM, compound concentration can start at 10 μM followed by half log dilutions for a total of 8-10 concentrations. Each concentration has to be tested in triplicate.
Include controls such as cells without compound (with same DMSO concentration as compound wells), and media control
Incubate the 96 well plate in a CO2 incubator at 37° C. for 72 hrs before determining cell viability using XTT assay
XTT assay: to each well, add 50 μL of 1 mg/ml XTT solution with 20 μl of PMS/mL. Read the plates after 2 hours at 465 nm using the spectrophotometer. XTT reading for media without cells is used as background reading.
Calculate % cell viability assuming that the cells without compound are 100% viable.
Plot % cell viability as a function of concentration and determine EC50 by using software such as Graph Pad Prism to fit the curve.

[1] = Homo sapiens, Jurkat, compound at 1 uM

Sequence of DHODH (Q02127 whole entry): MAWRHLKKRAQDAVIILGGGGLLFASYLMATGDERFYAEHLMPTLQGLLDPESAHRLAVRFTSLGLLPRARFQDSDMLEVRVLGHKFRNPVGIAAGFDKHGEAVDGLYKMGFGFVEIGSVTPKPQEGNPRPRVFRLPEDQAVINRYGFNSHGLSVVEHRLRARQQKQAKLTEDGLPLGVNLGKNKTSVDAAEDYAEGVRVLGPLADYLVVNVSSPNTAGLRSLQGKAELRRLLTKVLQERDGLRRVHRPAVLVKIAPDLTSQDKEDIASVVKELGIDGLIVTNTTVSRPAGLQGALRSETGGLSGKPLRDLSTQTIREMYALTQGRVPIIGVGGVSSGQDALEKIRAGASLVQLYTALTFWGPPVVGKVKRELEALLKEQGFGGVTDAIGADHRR

SMILES | inhibition at 10 µM (DHODH) [%] | inhibition at 1 µM (Jurkat cells; [1]) [%] | pIC50 (DHODH) | other results
O=C(O)c1cccc2[nH]c(-c3ccc(-c4ccc(OCc5ccccc5)cc4)cc3)nc12 [I190] | 47.5 | 16.5 |  | 
Cc1cc(C(=O)NC2CC2)c2[nH]c(-c3c(F)c(F)c(-c4ccccc4)c(F)c3F)nc2c1 [I163] | 75.6 | 37.7 |  | 
Cc1cc(C(=O)O)c2nc(-c3c(F)c(F)c(-c4ccc(CN5CCCCC5)cc4)c(F)c3F)[nH]c2c1 [I83, 6-Methyl-2-(2,3,5,6-tetrafluoro-4′-piperidin-1-ylmethyl-biphenyl-4-yl)-1H-benzoimidazole-4-carboxylic acid] | 111 | 93 | 7.11 | 
O=Cc1ccc(Oc2ccc(-c3ccc(-c4nc5c(C(=O)O)cccc5[nH]4)cc3)cc2)cc1 [I180] | 30.5 | 9.8 |  | 
Cc1cc(C(=O)O)c2nc(-c3ccc(-c4cnn(Cc5ccccc5)c4)cc3)[nH]c2c1 [I111] | 91 | 62 | 6.81 | 
O=C(O)c1cccc2[nH]c(-c3ccc(Nc4ccccc4)cc3)nc12 [I55] | 33.2 | 6.8 | 4.57 | 
O=C(O)c1cc(Cl)cc2c1N=C(c1ccc(-c3ccccc3)cc1)C2 [I51] |  |  | 5.63 | inh @ 10 uM hDHODH (%) (DHODH): 86.4%; % inh Jurkat_cells @ 1 uM (%) (Jurkat cells; compound at 1 uM): 39.5%
Cc1cc(C(=O)O)c2[nH]c(-c3c(F)c(F)c(-c4cccc(F)c4)c(F)c3F)nc2c1 [I126] | 97 | 94 | 8.05 | 
Cn1c(-c2ccc(-c3ccccc3)cc2)nc2c(C(=O)O)cccc21 [I7] | 30.2 |  |  | 
Cc1cc(C(=O)O)c2nc(-c3ccc(-c4ccc(OCc5cccnc5)cc4)cc3)[nH]c2c1 [I120] | 89.9 | 66.1 | 6.12 | 
O=C(O)c1cc(Br)cc2[nH]c(-c3ccc(-c4ccccc4)cc3)nc12 [I6] | 96.7 |  | 6.24 | pEC50 (Jurkat cells; Homo sapiens, Jurkat, 72 h, XTT cell viability): 6.41
O=C(O)c1cccc2nc(-c3ccc(-c4ccccc4)cc3)oc12 [I19] | 80.1 | 34.3 | 5.52 | 
O=C(O)c1cccc2nc(-c3ccc(N4CCOCC4)cc3)[nH]c12 [I62] | 8.4 |  |  | 
Cc1cc(C(=O)O)c2nc(C#Cc3ccccc3)[nH]c2c1 [I84, 6-Methyl-2-phenylethynyl-1H-benzoimidazole-4-carboxylic acid] | 59.5 |  |  | 
O=C(O)c1cccc2[nH]c(-c3ccc(-c4ccc(C(F)(F)F)cc4)cc3)nc12 [I13] | 10.6 |  |  | 
Cc1cc(C(=O)O)c2nc(-c3ccc(-c4cnccn4)cc3)[nH]c2c1 [I147] | 44.3 |  | 5.07 | 
COc1cccc(-c2ccc(-c3nc4c(C(=O)O)cccc4[nH]3)c(F)c2)c1 [I4] |  |  |  | inh @ 10 uM hDHODH (%) (DHODH): 2.1%
Cc1cc(C(=O)O)c2nc(-c3ccc(N4CCCCCC4=O)cc3)[nH]c2c1 [I80, 6-Methyl-2-[4-(2-oxo-azepan-1-yl)-phenyl]-1H-benzoimidazole-4-carboxylic acid] | 9.4 |  |  | 
Cc1nc(-c2ccc(-c3nc4cccc(C(=O)O)c4[nH]3)cc2)oc1C [I66] | 8.4 |  |  | 
Cc1cc(C(=O)O)c2nc(-c3c(F)c(F)c(-c4ccccc4)c(F)c3F)n(C)c2c1 [I113] | 95 |  | 6.94 | 
Cc1cc(C(=O)O)c2[nH]c(-c3c[nH]c4ccccc34)nc2c1 [I42] | 7.1 |  |  | 
COC(=O)c1cccc2nc(-c3ccc(-c4ccccc4)cc3)[nH]c12 [I79, 2-Biphenyl-4-yl-1H-benzoimidazole-4-carboxylic acid methyl ester] | 5.3 |  |  | 
Cc1ccc(-c2ccc(-c3nc4c(C(=O)O)cccc4[nH]3)cc2)cc1 [I12] | 9 |  |  | 
Cn1c(-c2ccc(-c3ccccc3)cc2)nc2cccc(C(=O)O)c21 [I8] | 90.5 |  | 5.80 | 
O=C(O)c1cccc2[nH]c(-c3ccc(OCc4ccccc4)cc3)nc12 [I2] | 66.1 |  | 5.31 | 
FC(F)(F)c1cccc2[nH]c(-c3ccc(-c4ccccc4)cc3)nc12 [I43] | 5.6 |  |  | 
